The record followed here is ChEMBL document CHEMBL5726715 (2018).

SMILES strings stand for the structures.

In this assay the target is T1, 3-phosphoinositide-dependent protein kinase 1 (Homo sapiens, UniProt O15530).
T1 sequence (O15530 whole entry): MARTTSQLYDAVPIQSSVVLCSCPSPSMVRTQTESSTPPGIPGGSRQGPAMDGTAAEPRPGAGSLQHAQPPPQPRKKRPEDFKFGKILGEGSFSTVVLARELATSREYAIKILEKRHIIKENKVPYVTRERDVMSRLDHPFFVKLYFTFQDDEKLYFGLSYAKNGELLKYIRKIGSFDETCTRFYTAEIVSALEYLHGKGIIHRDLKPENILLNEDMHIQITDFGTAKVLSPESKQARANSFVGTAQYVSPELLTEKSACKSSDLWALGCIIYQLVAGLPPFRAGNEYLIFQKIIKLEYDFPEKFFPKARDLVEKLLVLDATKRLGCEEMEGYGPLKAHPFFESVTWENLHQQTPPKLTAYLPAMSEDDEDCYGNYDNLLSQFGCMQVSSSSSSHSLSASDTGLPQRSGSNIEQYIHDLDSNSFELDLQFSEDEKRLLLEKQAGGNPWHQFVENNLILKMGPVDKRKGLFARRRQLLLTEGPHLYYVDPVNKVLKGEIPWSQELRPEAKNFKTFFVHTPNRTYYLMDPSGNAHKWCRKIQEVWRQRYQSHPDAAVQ
The assay can be described thus: Kinase Assay: A PDK1 kinase assay was performed as follows. […] PDK1 protein was divided into two fractions, one of which was subsequently dephosphorylated. To generate dephosphorylated PDK1, the PDK1 was reacted with GST-tagged lambda-phosphatase in vitro. GST was subsequently cleaved proteolytically for both phosphorylated and dephosphorylated PDK1. Protein preparations were run on glutathione Sepharose columns to remove GST and GST-tagged lambda-phosphatase, if present. […] Enzyme activity was determined in a coupled PDK1/AKT/FAM-crosstide assay using either phosphorylated or unphosphorylated PDK1 and phosphorylation of FAM-crosstide was determined by standard IMAP protocol (Molecular Devices). For inhibition studies, compounds were titrated 3-fold in DMSO and diluted 40-fold into assay buffer (10 mM Tris HCl pH7.2; 10 mM MgCl2; 0.01% Triton X-100; 1 mM DTT) containing PDK1, AKT2, and FAM-crosstide. […] To detect assay product, the kinase reaction was combined with Progressive Binding Solution (1:600 Progressive Binding Reagent, 50% Buffer A, 50% Buffer B, Molecular Devices) in a 1:3 ratio.
The IC50 is the point on the concentration scale where inhibition reaches its midpoint. With `C[C@H](COc1ccc2[nH]c(=O)[nH]c2c1)NC(=O)c1cccn(Cc2cc(F)c(F)c(F)c2)c1=O`, the IC50 was < 500 nM.

For `O=C(NCc1cncc(-c2c[nH]c3ncccc23)c1)c1cccn(Cc2ccc(F)c(F)c2)c1=O`, the IC50 is < 500 nM.

For `O=C(NC/C=C/c1ccc2[nH]c(=O)[nH]c2c1)c1cccn(Cc2cc(F)c(F)c(F)c2)c1=O`, the half-maximal inhibitory concentration (IC50) is < 500 nM.

On to `O=C(NCc1cccc(-c2c[nH]c3ncccc23)c1)c1cccn(Cc2ccc(C(F)(F)F)cc2)c1=O`, for which the 50% inhibitory concentration (IC50) is < 500 nM.

For the molecule `Nc1ncnc2ccc(-c3ccc(CNC(=O)c4cccn(Cc5ccc(F)c(F)c5)c4=O)s3)cc12`, the half-inhibitory concentration (IC50) was < 500 nM.

Take `O=C(NCc1ccc(OCCN2CCOCC2)c(-c2c[nH]c3ncccc23)c1)c1cccn(Cc2ccc(F)c(F)c2)c1=O`: the IC50 is < 500 nM.

Regarding `NC(=O)COc1cc(CNC(=O)c2cccn(Cc3ccc(F)c(F)c3)c2=O)cc(-c2c[nH]c3ncccc23)c1`, the half-maximal inhibitory concentration (IC50) is < 500 nM.

Take `O=C(NCc1cccc(-c2c[nH]c3nccc(F)c23)c1)c1cccn(Cc2ccc(F)c(F)c2)c1=O`: the IC50 is < 500 nM.

With `C=C[C@H](COc1ccc2[nH]c(=O)[nH]c2c1)NC(=O)c1cccn(Cc2cc(F)c(F)c(F)c2)c1=O`, the IC50 is < 500 nM.

`NC(=O)c1cc(-c2cccc(CNC(=O)c3cccn(Cc4ccc(F)c(F)c4)c3=O)c2)c[nH]1`: the concentration for half-maximal inhibition (IC50) is < 500 nM.

Consider `O=C(NCc1noc(-c2c[nH]c3ncccc23)n1)c1cc(Cl)cn(Cc2ccc(C(F)(F)F)cc2)c1=O`, for which the IC50 was < 500 nM.

Consider `Cc1[nH]c2ncccc2c1-c1cccc(CNC(=O)c2cccn(Cc3ccc(F)c(F)c3)c2=O)c1`, for which the 50% inhibitory concentration (IC50) is < 500 nM.

As for `O=C(N[C@@H](COc1ccc2[nH]c(=O)[nH]c2c1)C1CC1)c1cccn(Cc2cc(F)c(F)c(F)c2)c1=O`, the IC50 was < 500 nM.

As for `O=C(Nc1ccnc2ccc(-c3c[nH]c4ncccc34)cc12)c1cccn(Cc2ccc(F)c(F)c2)c1=O`, the half-maximal inhibitory concentration (IC50) was < 500 nM.

With `O=C(NCc1cc(OC2CCCC2)cc(-c2c[nH]c3ncccc23)c1)c1cccn(Cc2ccc(F)c(F)c2)c1=O`, the IC50 was < 500 nM.

Take `Cn1nc(NC(=O)c2cccn(Cc3ccc(F)c(F)c3)c2=O)c2cc(-c3c[nH]c4ncccc34)ccc21`: the IC50 is < 500 nM.

As for `CN(C)C(=O)COc1cc(CNC(=O)c2cccn(Cc3ccc(F)c(F)c3)c2=O)cc(-c2c[nH]c3ncccc23)c1`, the IC50 was < 500 nM.

In the case of `NC(=O)[C@H](COc1ccc2[nH]c(=O)[nH]c2c1)NC(=O)c1cccn(Cc2cc(F)c(F)c(F)c2)c1=O`, the IC50 is < 500 nM.

In the case of `O=C(O)Cn1nc(NC(=O)c2cccn(Cc3ccc(F)c(F)c3)c2=O)c2cc(-c3c[nH]c4ncccc34)ccc21`, the IC50 was < 500 nM.

Consider `Nc1ncnc2ccc(-c3cccc(CNC(=O)c4cccn(Cc5ccc(F)c(F)c5)c4=O)c3)cc12`, for which the IC50 was < 500 nM.

Take `O=C(NCc1cc(-c2c[nH]c3ncccc23)ccc1O)c1cccn(Cc2ccc(F)c(F)c2)c1=O`: the IC50 is < 500 nM.

In the case of `COc1ccc(CNC(=O)c2cccn(Cc3ccc(F)c(F)c3)c2=O)cc1-c1c[nH]c2ncccc12`, the IC50 is < 500 nM.

`CN1CCC(Oc2cc(CNC(=O)c3cccn(Cc4ccc(F)c(F)c4)c3=O)cc(-c3c[nH]c4ncccc34)c2)CC1`: the IC50 is < 500 nM.

Consider `O=C(O)c1cc(-c2c[nH]c3ncccc23)cc(CNC(=O)c2cccn(Cc3ccc(F)c(F)c3)c2=O)n1`, for which the IC50 was < 500 nM.

Regarding `O=C(NCc1ccc(O)c(-c2c[nH]c3ncccc23)c1)c1cccn(Cc2ccc(F)c(F)c2)c1=O`, the IC50 is < 500 nM.

Consider `CC(=O)NC[C@@H](NC(=O)c1cccn(Cc2ccc(F)c(F)c2)c1=O)c1nc(-c2c[nH]c3ncccc23)cs1`, for which the IC50 is < 500 nM.

As for `CC(C)(C)OC(=O)N1CCC(Oc2cc(CNC(=O)c3cccn(Cc4ccc(F)c(F)c4)c3=O)cc(-c3c[nH]c4ncccc34)c2)CC1`, the IC50 is < 500 nM.

For the molecule `O=C(NCc1cc(OC2CCCCC2)cc(-c2c[nH]c3ncccc23)c1)c1cccn(Cc2ccc(F)c(F)c2)c1=O`, the 50% inhibitory concentration (IC50) was < 500 nM.

Take `COc1cnc2[nH]cc(-c3cccc(CNC(=O)c4cccn(Cc5ccc(F)c(F)c5)c4=O)c3)c2c1`: the IC50 is < 500 nM.

With `O=C(NC1CC1)c1cnc2[nH]cc(-c3cccc(CNC(=O)c4cccn(Cc5ccc(F)c(F)c5)c4=O)c3)c2c1`, the IC50 is < 500 nM.

As to `O=C(NCc1cc(-c2c[nH]c3ncccc23)cc[n+]1[O-])c1cccn(Cc2ccc(F)c(F)c2)c1=O`, the IC50 is < 500 nM.

For the molecule `O=C(NCc1cccc(-c2c[nH]c3ncc(O)cc23)c1)c1cccn(Cc2ccc(F)c(F)c2)c1=O`, the half-maximal inhibitory concentration (IC50) is < 500 nM.

On to `CCn1nc(NC(=O)c2cccn(Cc3ccc(F)c(F)c3)c2=O)c2cc(-c3c[nH]c4ncccc34)ccc21`, for which the IC50 is < 500 nM.

In the case of `O=C(NCc1cc(OC2CCNCC2)cc(-c2c[nH]c3ncccc23)c1)c1cccn(Cc2ccc(F)c(F)c2)c1=O`, the concentration for half-maximal inhibition (IC50) was < 500 nM.

`O=C(NCc1cc(OS(=O)(=O)c2ccccc2)cc(-c2c[nH]c3ncccc23)c1)c1cccn(Cc2ccc(F)c(F)c2)c1=O`: the IC50 was < 500 nM.

Regarding `O=C(NCc1cccc(-c2c[nH]c(C(=O)N3CCOCC3)c2)c1)c1cccn(Cc2ccc(F)c(F)c2)c1=O`, the IC50 is < 500 nM.

As to `COc1ccc(-c2c[nH]c3ncccc23)cc1CNC(=O)c1cccn(Cc2ccc(F)c(F)c2)c1=O`, the IC50 was < 500 nM.

In the case of `O=C(NCCOc1ccc2[nH]c(=O)[nH]c2c1F)c1cccn(Cc2ccc(F)c(F)c2)c1=O`, the IC50 is < 500 nM.

Regarding `O=C(NCc1cccc(-c2c[nH]c3ncc(C(=O)N4CCOCC4)cc23)c1)c1cccn(Cc2ccc(F)c(F)c2)c1=O`, the 50% inhibitory concentration (IC50) was < 500 nM.

Regarding `COc1cnc2[nH]cc(-c3ccc(CNC(=O)c4cccn(Cc5ccc(F)c(F)c5)c4=O)s3)c2c1`, the half-inhibitory concentration (IC50) was < 500 nM.

Regarding `CS(=O)(=O)N1CCC(Oc2cc(CNC(=O)c3cccn(Cc4ccc(F)c(F)c4)c3=O)cc(-c3c[nH]c4ncccc34)c2)CC1`, the IC50 is < 500 nM.

Turning to `CNC(=O)c1cc(-c2cccc(CNC(=O)c3cccn(Cc4ccc(F)c(F)c4)c3=O)c2)c[nH]1`, the 50% inhibitory concentration (IC50) was < 500 nM.

Turning to `O=C(NCc1cccc(-c2c[nH]c3ncc(C(=O)N4CCNCC4)cc23)c1)c1cccn(Cc2ccc(F)c(F)c2)c1=O`, the 50% inhibitory concentration (IC50) was < 500 nM.

`O=C(NCc1noc(-c2c[nH]c3ncccc23)n1)c1cccn(Cc2cc(F)c(F)c(F)c2)c1=O`: the IC50 was < 500 nM.

In the case of `O=C(N[C@@H](COc1ccc2[nH]c(=O)[nH]c2c1)c1ccccc1Cl)c1cccn(Cc2cc(F)c(F)c(F)c2)c1=O`, the 50% inhibitory concentration (IC50) is < 500 nM.

With `O=C(NCc1coc(-c2c[nH]c3ncccc23)n1)c1cccn(Cc2ccc(F)c(F)c2)c1=O`, the IC50 was < 500 nM.

In the case of `O=C(NCc1noc(-c2c[nH]c3ncccc23)n1)c1cccn(Cc2ccc(F)c(F)c2)c1=O`, the 50% inhibitory concentration (IC50) is < 500 nM.

As for `O=C(NCc1cccc(-c2c[nH]c3ncc(C(F)(F)F)cc23)c1)c1cccn(Cc2ccc(F)c(F)c2)c1=O`, the IC50 was < 500 nM.

In the case of `CC(C)Oc1cc(CNC(=O)c2cccn(Cc3cc(F)c(F)c(F)c3)c2=O)cc(-c2c[nH]c3ncccc23)c1`, the IC50 is < 500 nM.

On to `O=C(NCc1cc(OCC(O)CO)cc(-c2c[nH]c3ncccc23)c1)c1cccn(Cc2ccc(F)c(F)c2)c1=O` (configuration not stated), for which the concentration for half-maximal inhibition (IC50) was < 500 nM.

Take `NC(=O)c1cc(-c2c[nH]c3ncccc23)cc(CNC(=O)c2cccn(Cc3ccc(F)c(F)c3)c2=O)n1`: the half-maximal inhibitory concentration (IC50) was < 500 nM.

For `CC(c1ccc(C(F)(F)F)cc1)n1cccc(C(=O)NCc2noc(-c3c[nH]c4ncccc34)n2)c1=O` (configuration not stated), the half-maximal inhibitory concentration (IC50) is < 500 nM.
